Among the data in ChEMBL document CHEMBL1142295, “A potential new prodrug for the treatment of cystinosis: design, synthesis and in-vitro evaluation” (Bioorg Med Chem Lett, 2008) are Activity values, retold here.

Active and inactive are the calls of the source. No cut-off for these calls is given here.

This assay is described as follows: Depletion of lysosomal cystine in cystinotic fibroblasts GM00008 at 50 uM after 72 hrs. In kind it is functional, cell-based. As to conditions: Fibroblast.

In the case of `NCCS`, the result was Active.

Consider `CCCCCCCCCC(=O)NCCSSCCNC(=O)CCCCCCCCC`, for which the outcome was Active.
